Results from ChEMBL document CHEMBL1201862, “PubChem BioAssay data set” (2004).
Active and inactive are the calls of the source.

What was measured:
[1] = molecular target: T1, Mitochondrial peptide methionine sulfoxide reductase (Bos taurus, UniProt P54149); type: functional;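 also: absorbance read-out, biochemical high-throughput dose-response screen for MsrA inhibitors, confirmatory; recombinant bovine MsrA coupled to E. coli TrxB with NADPH and selenocystamine; potency is for inhibitors of MsrA activity on DMSO substrate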
T1 sequence (P54149 whole entry): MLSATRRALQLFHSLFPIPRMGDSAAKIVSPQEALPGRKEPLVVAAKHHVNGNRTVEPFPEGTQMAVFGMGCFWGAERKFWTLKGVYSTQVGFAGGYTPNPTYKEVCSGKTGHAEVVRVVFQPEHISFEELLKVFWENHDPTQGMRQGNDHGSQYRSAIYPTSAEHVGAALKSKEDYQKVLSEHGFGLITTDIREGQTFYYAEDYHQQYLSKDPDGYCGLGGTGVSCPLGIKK

[2] = molecular target: Induced myeloid leukemia cell differentiation protein Mcl-1 (Homo sapiens, UniProt Q07820); type: functional
[3] = molecular target: DNA (cytosine-5)-methyltransferase 1 (Homo sapiens, UniProt P26358); experiment: DNMT1 methyltransferase inhibitors, confirmation, biochemical, fluorescent molecular beacon (AID 602386); type: functional
[4] = Luminescence Cell-Based Dose Retest to Confirm Inhibitors of Cancer Stem Cells. [Related pubchem assays (depositor defined):AID2717, AID2721]; type: functional; conditions: Homo sapiens
[5] = HIV-1 Env-mediated cell fusion inhibitors, dose response, CCR5-tropic Env (AID 2279); type: functional
[6] = HEp-2 cell cytotoxicity, dose response, cytotoxicity control for RSV inhibitor project, HTS (AID 2410); type: functional; conditions: human respiratory syncytial virus
[7] = molecular target: Hepatocyte nuclear factor 4-alpha (Homo sapiens, UniProt P41235); type: functional, cell-based;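 also: biochemical luminescence-based dose-response counterscreen measuring inhibition of HNF4 dimerization, run alongside a screen for blockers of ABHD5–perilipin-5 interaction; split luciferase complementation of HNF4 fusion proteins in cell lysate measuring dimerization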
[8] = molecular target: T2, Sentrin-specific protease 8 (Homo sapiens, UniProt Q96LD8); type: functional
T2 sequence (Q96LD8 whole entry): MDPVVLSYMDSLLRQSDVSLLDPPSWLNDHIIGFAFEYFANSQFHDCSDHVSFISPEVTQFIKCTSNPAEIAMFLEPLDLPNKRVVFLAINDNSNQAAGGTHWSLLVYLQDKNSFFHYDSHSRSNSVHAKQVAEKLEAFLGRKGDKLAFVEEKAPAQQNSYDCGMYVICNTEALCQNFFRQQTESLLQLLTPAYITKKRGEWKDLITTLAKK

[9] = molecular target: T2, Sentrin-specific protease 8; type: functional; remark: listed apart in the source
[10] = molecular target: ADP-ribosylation factor GTPase-activating protein 1 (Rattus norvegicus, UniProt Q62848); experiment: Fluorescence polarization-based biochemical high throughput dose response screening assay to identify inhibitors of ADP-ribosylation factor GTPase activating protein 1 (ARFGAP1).; type: functional
[11] = molecular target: T3, RNA-binding protein pos-1 (Caenorhabditis elegans, UniProt G5EF15); experiment: inhibitors of POS-1/mex-3 RNA binding, dose response, biochemical, fluorescence polarization (AID 1964);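 also: purified POS-1 fused to maltose binding protein made in E. coli; potency of compounds blocking POS-1 binding to fluorescent RNA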
T3 sequence (G5EF15 whole entry): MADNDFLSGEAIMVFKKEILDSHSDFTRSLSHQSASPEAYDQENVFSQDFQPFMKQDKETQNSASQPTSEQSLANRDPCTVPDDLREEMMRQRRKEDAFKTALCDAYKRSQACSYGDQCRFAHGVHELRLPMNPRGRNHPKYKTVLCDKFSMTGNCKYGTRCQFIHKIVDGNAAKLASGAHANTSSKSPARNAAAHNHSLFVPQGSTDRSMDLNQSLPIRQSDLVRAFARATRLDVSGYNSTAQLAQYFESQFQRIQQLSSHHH

[12] = molecular target: T4, Histone-lysine N-methyltransferase NSD2 (Homo sapiens, UniProt O96028); type: biochemical
T4 sequence (O96028 whole entry): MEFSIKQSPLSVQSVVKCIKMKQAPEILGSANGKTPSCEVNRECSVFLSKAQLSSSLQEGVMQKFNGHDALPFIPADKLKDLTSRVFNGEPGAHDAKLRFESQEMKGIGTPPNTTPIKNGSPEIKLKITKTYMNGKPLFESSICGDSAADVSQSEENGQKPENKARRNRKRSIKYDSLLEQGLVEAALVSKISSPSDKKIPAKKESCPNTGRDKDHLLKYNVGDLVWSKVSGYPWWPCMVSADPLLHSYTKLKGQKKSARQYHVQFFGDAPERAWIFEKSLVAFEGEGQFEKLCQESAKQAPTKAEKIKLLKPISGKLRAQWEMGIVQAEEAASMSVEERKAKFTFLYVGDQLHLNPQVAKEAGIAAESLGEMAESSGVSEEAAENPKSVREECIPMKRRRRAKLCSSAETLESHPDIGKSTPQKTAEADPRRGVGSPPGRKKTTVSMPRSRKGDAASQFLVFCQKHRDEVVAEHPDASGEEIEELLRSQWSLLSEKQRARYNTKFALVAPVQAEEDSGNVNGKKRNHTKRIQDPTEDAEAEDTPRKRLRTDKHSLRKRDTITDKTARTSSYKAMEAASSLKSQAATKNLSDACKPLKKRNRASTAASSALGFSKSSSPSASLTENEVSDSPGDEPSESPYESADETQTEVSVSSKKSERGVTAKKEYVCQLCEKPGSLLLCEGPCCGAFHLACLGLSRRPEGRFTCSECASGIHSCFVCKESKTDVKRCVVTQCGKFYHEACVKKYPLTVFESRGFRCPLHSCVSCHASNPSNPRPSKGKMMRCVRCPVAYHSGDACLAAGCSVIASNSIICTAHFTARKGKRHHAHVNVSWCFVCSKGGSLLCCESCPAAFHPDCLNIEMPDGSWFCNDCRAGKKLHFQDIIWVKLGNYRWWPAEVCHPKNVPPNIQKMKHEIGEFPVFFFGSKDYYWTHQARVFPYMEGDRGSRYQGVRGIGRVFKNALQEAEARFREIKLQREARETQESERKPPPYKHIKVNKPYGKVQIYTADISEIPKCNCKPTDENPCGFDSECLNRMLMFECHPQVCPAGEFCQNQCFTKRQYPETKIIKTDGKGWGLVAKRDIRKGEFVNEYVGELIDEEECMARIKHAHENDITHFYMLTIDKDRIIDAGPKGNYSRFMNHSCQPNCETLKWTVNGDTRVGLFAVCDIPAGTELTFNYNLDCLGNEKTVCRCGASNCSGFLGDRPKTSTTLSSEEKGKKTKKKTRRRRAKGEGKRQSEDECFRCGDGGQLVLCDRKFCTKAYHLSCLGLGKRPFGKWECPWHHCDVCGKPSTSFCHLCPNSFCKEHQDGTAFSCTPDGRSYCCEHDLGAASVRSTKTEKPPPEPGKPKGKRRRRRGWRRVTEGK

[13] = molecular target: T5, Carboxy-terminal domain RNA polymerase II polypeptide A small phosphatase 1 (Homo sapiens, UniProt Q9GZU7); experiment: inhibitors of CTDSP1, concentration-response testing, biochemical assay, absorbance-based, actives from ultra-high-throughput screening (AID 540297); type: functional
T5 sequence (Q9GZU7 whole entry): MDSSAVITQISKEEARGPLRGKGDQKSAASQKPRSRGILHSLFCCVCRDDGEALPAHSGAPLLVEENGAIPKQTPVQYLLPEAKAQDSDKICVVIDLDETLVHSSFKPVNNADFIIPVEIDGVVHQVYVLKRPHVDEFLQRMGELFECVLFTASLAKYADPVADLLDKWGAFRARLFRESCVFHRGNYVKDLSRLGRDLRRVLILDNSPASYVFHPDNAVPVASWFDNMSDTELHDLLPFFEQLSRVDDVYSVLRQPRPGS

[14] = molecular target: T6, Zinc finger protein mex-5 (Caenorhabditis elegans, UniProt Q9XUB2); experiment: MEX-5/TCR-2 RNA interaction inhibitors, dose response, biochemical, C. elegans, fluorescence polarization (AID 1960)
T6 sequence (Q9XUB2 whole entry): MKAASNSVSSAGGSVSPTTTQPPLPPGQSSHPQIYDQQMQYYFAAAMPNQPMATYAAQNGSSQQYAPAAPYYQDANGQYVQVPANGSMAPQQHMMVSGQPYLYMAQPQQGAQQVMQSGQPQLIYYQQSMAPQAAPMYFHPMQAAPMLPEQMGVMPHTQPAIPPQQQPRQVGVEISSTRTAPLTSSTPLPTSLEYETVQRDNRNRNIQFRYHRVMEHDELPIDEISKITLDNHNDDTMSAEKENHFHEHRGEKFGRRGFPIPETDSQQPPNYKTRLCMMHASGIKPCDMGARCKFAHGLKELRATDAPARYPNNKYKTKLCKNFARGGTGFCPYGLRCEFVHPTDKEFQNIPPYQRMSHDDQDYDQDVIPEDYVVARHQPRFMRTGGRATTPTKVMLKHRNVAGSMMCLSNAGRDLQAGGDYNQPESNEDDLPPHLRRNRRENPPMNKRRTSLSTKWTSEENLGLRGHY

[15] = NIH-3T3 fibroblast cytotoxicity, dose response, cytotoxicity control, cell-based, fluorescence, Alamar Blue, secondary assay (AID 2327); type: functional;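 also: NIH-3T3 mouse fibroblasts cultured with fluconazole at 8 µg/mL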
Protein Wnt-3a = Protein Wnt-3a (Mus musculus, UniProt P27467); experiment: Wnt3a-driven reporter signaling inhibition, dose response, selectivity assay for Gli-SUFU antagonist project, Wnt-LIGHT cells, luminescence (AID 651570); type: functional; conditions: read-out: IC50_Mean;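 also: Wnt-LIGHT reporter cells stimulated with conditioned medium from Wnt3a-producing cells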
[16] = C. albicans growth with fluconazole, confirmation, fluorescence, retest (AID 2467); type: functional, cell-based
[17] = inhibitors of intracellular T. cruzi replication, confirmation, NIH3T3 host cells, beta-gal luminescence (AID 2044); type: functional, cell-based;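 also: intracellular parasites grown in NIH/3T3 mouse fibroblasts as host cells; luminescent beta-galactosidase reporter signal from transgenic T. cruzi replicating inside host cells; inhibitors lower the luminescence signal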
[18] = cytotoxicity toward NIH3T3 fibroblasts, dose response, counter-screen, cell-based, ATP luminescence, mouse fibroblasts (AID 2010); type: functional;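 also: cells exposed to compound for about 90 hours before reading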
[19] = cytotoxicity in HEK-293T cells, dose response, cytotoxicity control for TCR NF-kB inhibitor project, luminescence, T-cell screen hits (AID 489026); type: functional, cell-based;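 also: cells exposed to compound about 14 hours before the viability readout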
[20] = molecular target: Photoreceptor-specific nuclear receptor (Homo sapiens, UniProt Q9Y5X4); type: functional, cell-based;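 also: CHO-S cells with Gal4-NCOR and VP16-NR2E3 two-hybrid luciferase reporter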
[21] = HEK293T cytotoxicity, dose response, cytotoxicity control for miR-122 modulator project, cell-based, inhibitor set, cherry-pick, set 2 (AID 720697); type: functional
[22] = miR-122 activators in hepatoma reporter cells, dose response, cell-based, Huh7 psiCHECK-miR122, Renilla luciferase, cherry-picked (AID 651956); type: functional;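 also: huh7 hepatoma cells stably carrying a psiCHECK-2 miR-122 sensor plasmid; renilla luciferase signal reporting endogenous miR-122 activity after 48 h compound exposure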
[23] = molecular target: T7, High affinity choline transporter 1 (Homo sapiens, UniProt Q9GZV3); experiment: CHT inhibitors, dose response, cell-based, 5-point CRC, membrane potential dye (AID 504840); type: functional
T7 sequence (Q9GZV3 whole entry): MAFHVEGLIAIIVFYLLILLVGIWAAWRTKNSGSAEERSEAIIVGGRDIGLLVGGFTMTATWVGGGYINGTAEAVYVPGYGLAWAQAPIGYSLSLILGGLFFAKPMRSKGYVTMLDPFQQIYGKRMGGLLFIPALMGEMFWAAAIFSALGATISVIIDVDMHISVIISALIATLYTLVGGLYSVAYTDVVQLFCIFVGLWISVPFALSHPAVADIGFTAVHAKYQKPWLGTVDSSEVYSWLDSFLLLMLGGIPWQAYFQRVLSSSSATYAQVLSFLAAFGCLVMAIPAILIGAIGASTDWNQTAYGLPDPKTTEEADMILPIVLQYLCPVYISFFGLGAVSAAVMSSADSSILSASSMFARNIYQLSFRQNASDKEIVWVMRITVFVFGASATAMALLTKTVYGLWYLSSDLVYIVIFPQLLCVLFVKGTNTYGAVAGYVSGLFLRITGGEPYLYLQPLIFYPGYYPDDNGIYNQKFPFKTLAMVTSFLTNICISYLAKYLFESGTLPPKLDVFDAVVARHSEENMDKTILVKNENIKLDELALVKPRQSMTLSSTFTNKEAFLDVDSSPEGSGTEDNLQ

[24] = molecular target: T7, High affinity choline transporter 1; experiment: CHT inhibitors, dose response, cell-based, 10-point CRC, membrane potential dye (AID 588401); type: functional;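 also: membrane potential dye fluorescence of choline-evoked depolarization via CHT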

Sequence of Protein Wnt-3a (P27467 whole entry): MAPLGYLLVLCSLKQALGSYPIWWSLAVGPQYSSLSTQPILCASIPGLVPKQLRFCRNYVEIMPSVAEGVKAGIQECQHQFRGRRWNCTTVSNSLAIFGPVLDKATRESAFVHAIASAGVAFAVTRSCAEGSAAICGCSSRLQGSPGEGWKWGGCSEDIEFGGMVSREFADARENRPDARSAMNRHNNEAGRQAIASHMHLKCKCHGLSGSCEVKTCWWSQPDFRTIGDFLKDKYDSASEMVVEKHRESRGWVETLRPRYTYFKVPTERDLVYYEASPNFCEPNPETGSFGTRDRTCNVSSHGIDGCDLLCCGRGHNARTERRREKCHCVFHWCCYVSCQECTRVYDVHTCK
Sequence of DNA (cytosine-5)-methyltransferase 1 (P26358 whole entry): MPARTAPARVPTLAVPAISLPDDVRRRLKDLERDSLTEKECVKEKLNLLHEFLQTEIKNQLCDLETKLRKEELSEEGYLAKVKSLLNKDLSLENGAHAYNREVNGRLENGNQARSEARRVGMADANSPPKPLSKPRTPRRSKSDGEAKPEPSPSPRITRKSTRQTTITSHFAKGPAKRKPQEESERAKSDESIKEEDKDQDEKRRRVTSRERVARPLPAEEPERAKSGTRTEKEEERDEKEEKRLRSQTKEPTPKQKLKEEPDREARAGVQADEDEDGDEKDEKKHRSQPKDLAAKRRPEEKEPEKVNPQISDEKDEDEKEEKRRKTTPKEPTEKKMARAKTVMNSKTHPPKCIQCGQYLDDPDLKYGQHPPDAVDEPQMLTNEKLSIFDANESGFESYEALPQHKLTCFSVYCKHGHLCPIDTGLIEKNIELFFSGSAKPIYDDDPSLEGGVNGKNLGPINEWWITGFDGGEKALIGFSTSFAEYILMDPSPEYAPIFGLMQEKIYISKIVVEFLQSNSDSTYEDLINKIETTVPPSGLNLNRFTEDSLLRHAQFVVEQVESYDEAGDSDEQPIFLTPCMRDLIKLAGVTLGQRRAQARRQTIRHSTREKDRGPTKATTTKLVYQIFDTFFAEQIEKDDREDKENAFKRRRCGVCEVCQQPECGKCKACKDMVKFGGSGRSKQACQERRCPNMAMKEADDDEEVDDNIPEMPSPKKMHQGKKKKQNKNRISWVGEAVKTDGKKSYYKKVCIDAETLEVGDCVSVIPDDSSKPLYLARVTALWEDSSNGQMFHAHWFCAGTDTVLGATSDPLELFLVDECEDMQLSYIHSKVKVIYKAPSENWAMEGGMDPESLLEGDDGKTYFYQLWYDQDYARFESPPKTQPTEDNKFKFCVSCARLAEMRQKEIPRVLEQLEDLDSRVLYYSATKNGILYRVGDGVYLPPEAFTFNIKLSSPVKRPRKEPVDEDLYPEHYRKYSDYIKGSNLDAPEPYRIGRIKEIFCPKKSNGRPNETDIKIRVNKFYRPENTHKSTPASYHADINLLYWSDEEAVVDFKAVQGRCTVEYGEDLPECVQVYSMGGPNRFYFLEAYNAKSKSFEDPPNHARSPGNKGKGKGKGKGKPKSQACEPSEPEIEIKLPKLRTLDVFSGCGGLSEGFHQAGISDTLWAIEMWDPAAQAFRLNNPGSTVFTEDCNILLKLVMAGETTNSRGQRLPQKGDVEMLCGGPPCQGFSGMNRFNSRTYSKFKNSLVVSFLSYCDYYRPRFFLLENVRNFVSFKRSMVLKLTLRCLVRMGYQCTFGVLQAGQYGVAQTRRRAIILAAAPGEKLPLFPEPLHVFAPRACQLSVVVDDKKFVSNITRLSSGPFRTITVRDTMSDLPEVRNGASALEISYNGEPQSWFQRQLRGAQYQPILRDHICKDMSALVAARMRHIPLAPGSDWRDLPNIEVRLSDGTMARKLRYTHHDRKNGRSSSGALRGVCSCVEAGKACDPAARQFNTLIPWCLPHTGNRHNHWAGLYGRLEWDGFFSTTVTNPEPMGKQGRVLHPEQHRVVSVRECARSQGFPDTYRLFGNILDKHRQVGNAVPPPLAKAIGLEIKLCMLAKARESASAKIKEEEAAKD
Sequence of ADP-ribosylation factor GTPase-activating protein 1 (Q62848 whole entry, the tested form may be a part): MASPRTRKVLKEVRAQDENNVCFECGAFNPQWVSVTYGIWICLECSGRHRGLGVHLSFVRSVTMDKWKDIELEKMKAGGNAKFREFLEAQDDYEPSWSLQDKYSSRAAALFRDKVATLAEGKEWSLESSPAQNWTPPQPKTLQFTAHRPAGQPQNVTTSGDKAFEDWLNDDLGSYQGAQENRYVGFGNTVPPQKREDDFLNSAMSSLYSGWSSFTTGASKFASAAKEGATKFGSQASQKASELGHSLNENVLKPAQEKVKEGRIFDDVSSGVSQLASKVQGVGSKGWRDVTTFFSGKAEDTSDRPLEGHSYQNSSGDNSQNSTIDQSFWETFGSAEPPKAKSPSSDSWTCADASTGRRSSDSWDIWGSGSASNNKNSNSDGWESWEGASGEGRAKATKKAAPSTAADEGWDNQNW
Sequence of Hepatocyte nuclear factor 4-alpha (P41235 whole entry, the tested form may be a part): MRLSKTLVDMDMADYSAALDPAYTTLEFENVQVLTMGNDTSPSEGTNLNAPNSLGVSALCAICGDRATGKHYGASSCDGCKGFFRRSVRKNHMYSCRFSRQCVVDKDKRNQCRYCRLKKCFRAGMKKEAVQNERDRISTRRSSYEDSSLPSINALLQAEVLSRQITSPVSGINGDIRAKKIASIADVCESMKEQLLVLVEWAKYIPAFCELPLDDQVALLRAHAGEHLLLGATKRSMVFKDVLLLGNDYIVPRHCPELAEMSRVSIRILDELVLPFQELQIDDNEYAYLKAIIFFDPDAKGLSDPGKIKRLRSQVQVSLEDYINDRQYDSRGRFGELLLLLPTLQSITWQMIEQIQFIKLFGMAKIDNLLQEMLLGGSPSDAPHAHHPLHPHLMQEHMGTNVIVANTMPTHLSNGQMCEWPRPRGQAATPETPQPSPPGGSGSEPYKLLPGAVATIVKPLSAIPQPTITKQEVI
Sequence of Photoreceptor-specific nuclear receptor (Q9Y5X4 whole entry, the tested form may be a part): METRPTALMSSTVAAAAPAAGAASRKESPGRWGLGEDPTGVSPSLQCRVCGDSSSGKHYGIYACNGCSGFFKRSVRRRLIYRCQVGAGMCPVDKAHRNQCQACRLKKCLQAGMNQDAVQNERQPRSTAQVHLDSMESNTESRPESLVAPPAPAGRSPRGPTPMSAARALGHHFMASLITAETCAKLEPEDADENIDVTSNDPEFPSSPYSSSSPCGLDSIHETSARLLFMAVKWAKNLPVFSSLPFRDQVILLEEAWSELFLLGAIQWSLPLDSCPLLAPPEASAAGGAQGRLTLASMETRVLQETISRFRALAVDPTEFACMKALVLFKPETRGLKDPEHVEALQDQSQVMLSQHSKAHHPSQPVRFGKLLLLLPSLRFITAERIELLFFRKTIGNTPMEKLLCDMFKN
Sequence of Induced myeloid leukemia cell differentiation protein Mcl-1 (Q07820 whole entry): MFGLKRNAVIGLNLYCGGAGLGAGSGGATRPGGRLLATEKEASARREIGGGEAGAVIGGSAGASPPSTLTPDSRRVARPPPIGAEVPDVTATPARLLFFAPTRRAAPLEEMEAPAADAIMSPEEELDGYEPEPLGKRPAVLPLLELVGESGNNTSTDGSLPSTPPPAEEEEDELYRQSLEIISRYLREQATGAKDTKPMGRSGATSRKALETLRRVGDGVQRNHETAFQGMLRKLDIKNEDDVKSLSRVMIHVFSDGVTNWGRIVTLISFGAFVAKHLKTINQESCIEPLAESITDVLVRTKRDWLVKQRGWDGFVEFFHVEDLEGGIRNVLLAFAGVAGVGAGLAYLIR

**Q.** With `COc1ccc(/C=N/n2c(S)nnc2C2CCCCC2)c(OC)c1` as the compound, how does the IC50 [1] read?
**A.** 155 µM (inactive)

**Q.** Which IC50 [2] does the source give for `O=C(O)CCCCCN1C(=O)/C(=C\c2cn(-c3ccccc3)nc2-c2cccs2)SC1=S` here?
**A.** 2.31 µM (active)

**Q.** And the IC50 [3]?
**A.** 6.97 µM (active)

**Q.** What about the AC50 [4] of the same compound?
**A.** 3.54 µM (active)

**Q.** What about the IC50 [5] of the same compound?
**A.** 37.4 µM (active)

**Q.** And the CC50 [6]?
**A.** 12 µM (active)

**Q.** Which IC50 [7] does the source give for `O=C(Nc1ccc2c(c1)OCCO2)C(c1ccnc2ccccc12)n1c(=O)c(-c2ccco2)nc2ccccc21` (stereo not drawn) here?
**A.** 18.9 µM (inactive)

**Q.** Which results are given for `O=C1NC(=O)C(Nc2ccc(Cl)c(Cl)c2)C(=O)N1`?
**A.** IC50 [8]: 8.82 µM (active); IC50 [9]: 10.9 µM (active)

**Q.** For `COc1ccc(-n2nc3c(N4CCC(C(=O)NCc5ccccc5)CC4)nnc(C)c3c2C)cc1`, which IC50 [10] is on record?
**A.** 40.6 µM (inactive)

**Q.** With `CCOc1cccc(N2C(=O)/C(=C/c3ccco3)C(=O)NC2=S)c1` as the compound, how does the EC50 [11] read?
**A.** > 300 µM (not active)

**Q.** And the AC50 [12]?
**A.** 1.04 µM (active)

**Q.** What about the IC50 [3] of the same compound?
**A.** 4.24 µM (active)

**Q.** And the IC50 [13]?
**A.** 1.6 µM (active)

**Q.** What about the EC50 [14] of the same compound?
**A.** > 300 µM (not active)

**Q.** Which EC50 [15] does the source give for `Cc1c(CCOC(=O)C23CC4CC(CC(C)(C4)C2)C3)sc[n+]1Cc1ccccc1` here?
**A.** > 150 µM (inactive)

**Q.** What about the IC50 (Protein Wnt-3a) of the same compound?
**A.** 32 µM (inactive)

**Q.** What about the EC50 [16] of the same compound?
**A.** 2.08 µM (active)

**Q.** With `COc1ccccc1CCNC(=O)c1cc(-c2ccncc2)nc2ccc(Br)cc12` as the compound, how does the IC50 (Protein Wnt-3a) read?
**A.** 10.9 µM (active)

**Q.** What about the EC50 [17] of the same compound?
**A.** 0.874 µM (active)

**Q.** And the EC50 [18]?
**A.** > 60 µM (not active)

**Q.** Which IC50 [19] does the source give for `COc1cc2nc(CN3CC=C(c4ccccc4)CC3)nc(O)c2cc1OC` here?
**A.** > 80 µM (inactive)

**Q.** What about the IC50 [20] of the same compound?
**A.** 0.0655 µM (active)

**Q.** And the AC50 [4]?
**A.** 0.609 µM (active)

**Q.** Which results are given for `Cc1cc(C(=O)Nc2ccc3c(c2)C(=O)N(C)[C@@H]2CC[C@H](CC(=O)N[C@@H](C)c4ccccc4)O[C@H]2CO3)no1`?
**A.** AC50 [21]: 1.12 µM (active); AC50 [22]: 57.6 µM (active)

**Q.** For `O=C(Nc1ccc(S(=O)(=O)NCC2CCCO2)cc1)c1ccc(Cl)cc1[N+](=O)[O-]` (stereo not drawn), which IC50 [23] is on record?
**A.** 7.39 µM (active)

**Q.** What about the IC50 [24] of the same compound?
**A.** 4.47 µM (active)
